Assay results from patent US8148373B2, “Compounds” (AstraZeneca AB, priority 2008, dated 2012).

Key:
[1] = molecular target: T1, Adrenergic β2 (H292 cells) (Homo sapiens, UniProt P07550); test: Adrenergic β2 Mediated cAMP Production, single concentration 1 μM; format: cell-based; settings: NCI-H292, 1 μM compound, percentage of the maximum response generated by 1E-07M formoterol, read-out: β2 (% effect at 1 μM)
T1 construct: endogenous in cells; host or cells: H292 cells
In short: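 H292 cells were plated overnight, pre-treated with 300 μM rolipram for 10 min, then exposed to compound at 1 μM final (1% DMSO) for 60 min at room temperature. cAMP in the lysates was measured by AlphaScreen against a standard curve and expressed as % of the maximal response to 1E-07M formoterol.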

[2] = molecular target: T2, human muscarinic acetylcholine M3 receptor (M3-ACh) (Homo sapiens, UniProt P20309); test: Muscarinic 3 Receptor Binding Assay, % inhibition specific binding at 1 μM; settings: 1 μM compound, % inhibition specific [3H]-NMS binding
T2 construct: expressed in transfected cells; host or cells: CHO-K1 (Chinese Hamster Ovary) cell membranes
T2 sequence (P20309 whole entry): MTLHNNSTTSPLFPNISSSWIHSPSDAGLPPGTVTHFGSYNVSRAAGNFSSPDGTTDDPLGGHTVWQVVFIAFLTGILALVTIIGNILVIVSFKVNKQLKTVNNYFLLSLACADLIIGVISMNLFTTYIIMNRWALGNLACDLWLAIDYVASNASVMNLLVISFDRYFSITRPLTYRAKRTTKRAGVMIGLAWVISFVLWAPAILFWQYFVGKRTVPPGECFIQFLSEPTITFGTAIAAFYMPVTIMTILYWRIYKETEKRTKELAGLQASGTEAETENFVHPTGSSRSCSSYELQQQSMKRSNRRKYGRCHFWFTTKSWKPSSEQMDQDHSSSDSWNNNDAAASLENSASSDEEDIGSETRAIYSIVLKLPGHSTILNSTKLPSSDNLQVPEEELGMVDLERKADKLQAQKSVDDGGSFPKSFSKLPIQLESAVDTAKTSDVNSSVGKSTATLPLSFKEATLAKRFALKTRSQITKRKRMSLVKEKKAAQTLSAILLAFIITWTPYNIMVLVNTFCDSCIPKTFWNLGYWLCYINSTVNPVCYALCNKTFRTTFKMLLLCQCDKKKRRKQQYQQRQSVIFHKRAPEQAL
In short: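 Competition binding of 0.1 nM [3H]NMS to membranes from CHO-K1 cells expressing human M3, SPA format, with compound at 1 μM in 20 mM HEPES pH 7.4, 5 mM MgCl2, 1% DMSO. Incubated 16 h at room temperature; non-specific binding defined by 1 μM atropine; value is % inhibition of specific binding.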

T1 sequence (P07550 whole entry): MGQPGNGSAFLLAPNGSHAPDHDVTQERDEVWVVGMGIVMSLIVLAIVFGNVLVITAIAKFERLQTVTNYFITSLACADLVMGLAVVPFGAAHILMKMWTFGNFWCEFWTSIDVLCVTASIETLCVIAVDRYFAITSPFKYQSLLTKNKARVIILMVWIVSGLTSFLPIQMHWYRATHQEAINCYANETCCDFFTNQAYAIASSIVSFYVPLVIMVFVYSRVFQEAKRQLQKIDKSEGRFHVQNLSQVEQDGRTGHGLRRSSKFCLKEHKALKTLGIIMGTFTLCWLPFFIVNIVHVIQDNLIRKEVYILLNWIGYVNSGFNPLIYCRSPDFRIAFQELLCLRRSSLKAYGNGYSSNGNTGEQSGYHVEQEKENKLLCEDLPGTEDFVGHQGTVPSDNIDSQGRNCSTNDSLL

| SMILES | activation at 1 µM [1] [%] | inhibition at 1 µM [2] [%] |
| --- | --- | --- |
| Cc1cc(CC(=O)N2CCOC3(CCN(CCCCCCCCCNC[C@H](O)c4ccc(O)c5[nH]c(=O)sc45)CC3)C2)on1 [Example 208, (R)-4-hydroxy-7-(1-hydroxy-2-(9-(4-(2-(3-methylisoxazol-5-yl)acetyl)-1-oxa-4,9-diazaspiro[5.5]undecan-9-yl)nonylamino)ethyl)benzo[d]thiazol-2(3H)-one] | 98 | 88 |
| Cc1cc(C(=O)N2CCOC3(CCN(CCCCCCCCCNC[C@H](O)c4ccc(O)c5[nH]c(=O)sc45)CC3)C2)oc1C [Example 195, (R)-7-(2-(9-(4-(4,5-dimethylfuran-2-carbonyl)-1-oxa-4,9-diazaspiro[5.5]undecan-9-yl)nonylamino)-1-hydroxyethyl)-4-hydroxybenzo[d]thiazol-2(3H)-one] | 86 | 88 |
| Cc1cc(CC(=O)N2CCOC3(CCN(CCOc4ccc(CNC[C@H](O)c5ccc(O)c6[nH]c(=O)sc56)cc4)CC3)C2)on1 [Example 249, (R)-4-hydroxy-7-(1-hydroxy-2-(4-(2-(4-(2-(3-methylisoxazol-5-yl)acetyl)-1-oxa-4,9-diazaspiro[5.5]undecan-9-yl)ethoxy)benzylamino)ethyl) benzo[d]thiazol-2(3H)-one] | 76 | 31 |
| O=C(c1ccc2ncsc2c1)N1CCOC2(CCN(Cc3cc(F)cc(CCNC[C@H](O)c4ccc(O)c5[nH]c(=O)sc45)c3)CC2)C1 [Example 132, (R)-7-(2-(3-((4-(benzo[d]thiazole-6-carbonyl)-1-oxa-4,9-diazaspiro[5.5]undecan-9-yl)methyl)-5-fluorophenethylamino)-1-hydroxyethyl)-4-hydroxybenzo[d]thiazol-2(3H)-one] | 92 | 85 |
| Cc1occc1C(=O)N1CCOC2(CCN(CCOc3ccc(CNC[C@H](O)c4ccc(O)c5[nH]c(=O)sc45)cc3)CC2)C1 [Example 238, (R)-4-hydroxy-7-(1-hydroxy-2-(4-(2-(4-(2-methylfuran-3-carbonyl)-1-oxa-4,9-diazaspiro[5.5]undecan-9-yl)ethoxy)benzylamino)ethyl) benzo[d]thiazol-2(3H)-one] | 73 | 57 |
| Cc1occc1C(=O)N1CCOC2(CCN(CCCCCCCCCNC[C@H](O)c3ccc(O)c4[nH]c(=O)sc34)CC2)C1 [Example 197, (R)-4-hydroxy-7-(1-hydroxy-2-(9-(4-(2-methylfuran-3-carbonyl)-1-oxa-4,9-diazaspiro[5.5]undecan-9-yl)nonylamino)ethyl)benzo[d]thiazol-2(3H)-one] | 78 | 97 |
| Cc1ccoc1C(=O)N1CCOC2(CCN(CCOc3ccc(CNC[C@H](O)c4ccc(O)c5[nH]c(=O)sc45)cc3)CC2)C1 [Example 234, (R)-4-hydroxy-7-(1-hydroxy-2-(4-(2-(4-(3-methylfuran-2-carbonyl)-1-oxa-4,9-diazaspiro[5.5]undecan-9-yl)ethoxy)benzylamino)ethyl) benzo[d]thiazol-2(3H)-one] | 78 | 80 |
| Cc1ccoc1C(=O)N1CCOC2(CCN(Cc3cc(F)cc(CCNC[C@H](O)c4ccc(O)c5[nH]c(=O)sc45)c3)CC2)C1 [Example 127, (R)-7-(2-(3-fluoro-5-((4-(3-methylfuran-2-carbonyl)-1-oxa-4,9-diazaspiro[5.5]undecan-9-yl)methyl)phenethylamino)-1-hydroxyethyl)-4-hydroxybenzo[d]thiazol-2(3H)-one] | 97 | 78 |
| Cc1cccc(C(=O)N2CCOC3(CCN(CCOc4ccc(CNC[C@H](O)c5ccc(O)c6[nH]c(=O)sc56)cc4)CC3)C2)n1 [Example 237, (R)-4-hydroxy-7-(1-hydroxy-2-(4-(2-(4-(6-methylpicolinoyl)-1-oxa-4,9-diazaspiro[5.5]undecan-9-yl)ethoxy)benzylamino)ethyl) benzo[d]thiazol-2(3H)-one] | 62 | 46 |
| O=C(COCc1ccccc1)N1CCOC2(CCN(CCCCCCCCCNC[C@H](O)c3ccc(O)c4[nH]c(=O)sc34)CC2)C1 [Example 203, (R)-7-(2-(9-(4-(2-(benzyloxy)acetyl)-1-oxa-4,9-diazaspiro[5.5]undecan-9-yl)nonylamino)-1-hydroxyethyl)-4-hydroxybenzo[d]thiazol-2(3H)-one] | 99 | 94 |
| Cc1nc2cc(C(=O)N3CCOC4(CCN(Cc5cc(F)cc(CCNC[C@H](O)c6ccc(O)c7[nH]c(=O)sc67)c5)CC4)C3)ccc2n1C [Example 162, (R)-7-(2-(3-((4-(1,2-dimethyl-1H-benzo[d]imidazole-5-carbonyl)-1-oxa-4,9-diazaspiro[5.5]undecan-9-yl)methyl)-5-fluorophenethylamino)-1-hydroxyethyl)-4-hydroxybenzo[d]thiazol-2(3H)-one] | 91 | 8 |
| O=C(Cc1ccc(-c2ccccc2)cc1)N1CCOC2(CCN(Cc3cc(F)cc(CCNC[C@H](O)c4ccc(O)c5[nH]c(=O)sc45)c3)CC2)C1 [Example 123, (R)-7-(2-(3-((4-(2-(biphenyl-4-yl)acetyl)-1-oxa-4,9-diazaspiro[5.5]undecan-9-yl)methyl)-5-fluorophenethylamino)-1-hydroxyethyl)-4-hydroxybenzo[d]thiazol-2(3H)-one] | 97 | 62 |
| O=C(CCCc1ccccc1)N1CCOC2(CCN(CCCCCCCCCNC[C@H](O)c3ccc(O)c4[nH]c(=O)sc34)CC2)C1 [Example 188, (R)-4-hydroxy-7-(1-hydroxy-2-(9-(4-(4-phenylbutanoyl)-1-oxa-4,9-diazaspiro[5.5]undecan-9-yl)nonylamino)ethyl)benzo[d]thiazol-2(3H)-one] | 93 | 96 |

Now from value to compound:

| activation at 1 µM [1] [%] | inhibition at 1 µM [2] [%] | SMILES |
| --- | --- | --- |
| 92 | 70 | Cc1ccnn1CC(=O)N1CCOC2(CCN(CCCCCCCCCNC[C@H](O)c3ccc(O)c4[nH]c(=O)sc34)CC2)C1 [Example 200, (R)-4-hydroxy-7-(1-hydroxy-2-(9-(4-(2-(5-methyl-1H-pyrazol-1-yl)acetyl)-1-oxa-4,9-diazaspiro[5.5]undecan-9-yl)nonylamino)ethyl)benzo[d]thiazol-2(3H)-one] |
| 101 | 94 | O=C(CCc1cccs1)N1CCOC2(CCN(CCCCCCCCCNC[C@H](O)c3ccc(O)c4[nH]c(=O)sc34)CC2)C1 [Example 207, (R)-4-hydroxy-7-(1-hydroxy-2-(9-(4-(3-(thiophen-2-yl)propanoyl)-1-oxa-4,9-diazaspiro[5.5]undecan-9-yl)nonylamino)ethyl)benzo[d]thiazol-2(3H)-one] |
| 106 | 3 | O=C(c1ccc(-n2ccnc2)cc1)N1CCOC2(CCN(Cc3cc(F)cc(CCNC[C@H](O)c4ccc(O)c5[nH]c(=O)sc45)c3)CC2)C1 [Example 156, (R)-7-(2-(3-((4-(4-(1H-imidazol-1-yl)benzoyl)-1-oxa-4,9-diazaspiro[5.5]undecan-9-yl)methyl)-5-fluorophenethylamino)-1-hydroxyethyl)-4-hydroxybenzo[d]thiazol-2(3H)-one] |
| 87 | 16 | CC(C)(C(=O)N1CCOC2(CCN(Cc3cc(F)cc(CCNC[C@H](O)c4ccc(O)c5[nH]c(=O)sc45)c3)CC2)C1)c1ccccc1 [Example 176, (R)-7-(2-(3-fluoro-5-((4-(2-methyl-2-phenylpropanoyl)-1-oxa-4,9-diazaspiro[5.5]undecan-9-yl)methyl)phenethylamino)-1-hydroxyethyl)-4-hydroxybenzo[d]thiazol-2(3H)-one] |
| 92 | 84 | O=C(CCc1ccccc1)N1CCOC2(CCN(CCCCCCCCCNC[C@H](O)c3ccc(O)c4[nH]c(=O)sc34)CC2)C1 [Example 187, (R)-4-hydroxy-7-(1-hydroxy-2-(9-(4-(3-phenylpropanoyl)-1-oxa-4,9-diazaspiro[5.5]undecan-9-yl)nonylamino)ethyl)benzo[d]thiazol-2(3H)-one] |
| 109 | 76 | O=C(c1ccc2cc[nH]c2c1)N1CCOC2(CCN(Cc3cc(F)cc(CCNC[C@H](O)c4ccc(O)c5[nH]c(=O)sc45)c3)CC2)C1 [Example 140, (R)-7-(2-(3-((4-(1H-indole-6-carbonyl)-1-oxa-4,9-diazaspiro[5.5]undecan-9-yl)methyl)-5-fluorophenethylamino)-1-hydroxyethyl)-4-hydroxybenzo[d]thiazol-2(3H)-one] |
| 92 | 85 | O=C(c1cc2ccccc2s1)N1CCOC2(CCN(CCCCCCCCCNC[C@H](O)c3ccc(O)c4[nH]c(=O)sc34)CC2)C1 [Example 194, (R)-7-(2-(9-(4-(benzo[b]thiophene-2-carbonyl)-1-oxa-4,9-diazaspiro[5.5]undecan-9-yl)nonylamino)-1-hydroxyethyl)-4-hydroxybenzo[d]thiazol-2(3H)-one] |
| 101 | 22 | COc1ccccc1CC(=O)N1CCOC2(CCN(Cc3cc(F)cc(CCNC[C@H](O)c4ccc(O)c5[nH]c(=O)sc45)c3)CC2)C1 [Example 117, (R)-7-(2-(3-fluoro-5-((4-(2-(2-methoxyphenyl)acetyl)-1-oxa-4,9-diazaspiro[5.5]undecan-9-yl)methyl)phenethylamino)-1-hydroxyethyl)-4-hydroxybenzo[d]thiazol-2(3H)-one] |
